Experimental data from patent US20050239656A1, “Pyridine compounds or salts thereof and herbicides containing the same” (priority 2002, published 2005).

tested on: barnyardgrass; test: Test Example 1: foliage treatment, upland pot test; type: in vivo, Echinochloa crus-galli L.; details: active ingredient 1000 g/ha, observed 18th to 23rd day, 0 = non-treated, 100 = complete kill
Excerpt: (§1) Upland field soil was put into a 1/170,000 ha pot, and seed of various plants were sown. Then, when the plants reached predetermined leaf stages ((1) barnyardgrass: 1.3 to 2.8 leaf stages, (2) crabgrass: 1.0 to 2.8 leaf stages, (3) green foxtail: 1.3 to 2.6 leaf stages, (4) redroot pigweed: 0.1 to 1.2 leaf stages, (5) prickly sida: 0.1 to 1.2 leaf stages, (6) velvetleaf: 0.1 to 1.2 leaf stages, (7) tall morningglory: 0.1 to 1.5 leaf stages, (8) rice: 1.2 to 2.6 leaf stages, (9) wheat: 1.3 to 2.4 leaf stages, (10) corn, 2.1 to 3.2 leaf stages, (11) soybean: 0.1 to 0.4 leaf stage), a wettable powder or emulsifiable concentrate having the compound of the present invention formulated in accordance with a usual formulation method, was weighed so that the active ingredient would be a predetermined amount, and diluted with water in an amount of 500 L/ha. To the diluted solution, 0.1% (v/v) of agricultural spreader was added. The herbicide thus adjusted was applied by a small size sprayer for foliage treatment. On the 18th to 23rd days after the application of the herbicide, the growth of the respective plants was visually observed, and the herbicidal effects were evaluated by the growth controlling degrees (%) ranging from 0 (equivalent to the non-treated plot) to 100 (complete kill), whereby the results shown in Table 3, were obtained.

Structure (SMILES)	Growth controlling degree (%) Barnyardgrass [%]
CCN(C(=O)Cc1cccc(C(F)(F)F)c1)C(c1cnccc1C(F)(F)F)C(C)C (stereo not drawn) [I-75]	70
CC(C)C(c1cnccc1Cl)N(C)C(=O)Cc1cccc(C(F)(F)F)c1F (stereo not drawn) [I-74]	50

tested on: redroot pigweed; test: Test Example 1: foliage treatment, upland pot test; type: in vivo, Amaranthus retroflexus L.; details: active ingredient 1000 g/ha, observed 18th to 23rd day, 0 = non-treated, 100 = complete kill
Excerpt: as §1

Structure (SMILES)	Growth controlling degree (%) Redroot pigweed [%]
CCN(C(=O)Cc1cccc(C(F)(F)F)c1)C(c1cnccc1C(F)(F)F)C(C)C (stereo not drawn) [I-75]	60
CC(C)C(c1cnccc1Cl)N(C)C(=O)Cc1cccc(C(F)(F)F)c1F (stereo not drawn) [I-74]	60

tested on: prickly sida; test: Test Example 1: foliage treatment, upland pot test; type: in vivo, Sida spinosa L.; details: active ingredient 1000 g/ha, observed 18th to 23rd day, 0 = non-treated, 100 = complete kill
Excerpt: as §1

Structure (SMILES)	Growth controlling degree (%) Prickly sida [%]
CCN(C(=O)Cc1cccc(C(F)(F)F)c1)C(c1cnccc1C(F)(F)F)C(C)C (stereo not drawn) [I-75]	80
CC(C)C(c1cnccc1Cl)N(C)C(=O)Cc1cccc(C(F)(F)F)c1F (stereo not drawn) [I-74]	80

tested on: velvetleaf; test: Test Example 1: foliage treatment, upland pot test; type: in vivo, Abutilon theophrasti MEDIC.; details: active ingredient 1000 g/ha, observed 18th to 23rd day, 0 = non-treated, 100 = complete kill
Excerpt: as §1

Structure (SMILES)	Growth controlling degree (%) Velvetleaf [%]
CCN(C(=O)Cc1cccc(C(F)(F)F)c1)C(c1cnccc1C(F)(F)F)C(C)C (stereo not drawn) [I-75]	90
CC(C)C(c1cnccc1Cl)N(C)C(=O)Cc1cccc(C(F)(F)F)c1F (stereo not drawn) [I-74]	90

tested on: rice; test: Test Example 1: foliage treatment, upland pot test; type: in vivo, Oryza sativa L.; details: crop, active ingredient 1000 g/ha, observed 18th to 23rd day, 0 = non-treated, 100 = complete kill
Excerpt: as §1

Structure (SMILES)	Growth controlling degree (%) Rice [%]
CCN(C(=O)Cc1cccc(C(F)(F)F)c1)C(c1cnccc1C(F)(F)F)C(C)C (stereo not drawn) [I-75]	20
CC(C)C(c1cnccc1Cl)N(C)C(=O)Cc1cccc(C(F)(F)F)c1F (stereo not drawn) [I-74]	20

tested on: corn; test: Test Example 1: foliage treatment, upland pot test; type: in vivo, Zea mays L.; details: crop, active ingredient 1000 g/ha, observed 18th to 23rd day, 0 = non-treated, 100 = complete kill
Excerpt: as §1

Structure (SMILES)	Growth controlling degree (%) Corn [%]
CCN(C(=O)Cc1cccc(C(F)(F)F)c1)C(c1cnccc1C(F)(F)F)C(C)C (stereo not drawn) [I-75]	10
CC(C)C(c1cnccc1Cl)N(C)C(=O)Cc1cccc(C(F)(F)F)c1F (stereo not drawn) [I-74]	30

tested on: soybean; test: Test Example 1: foliage treatment, upland pot test; type: in vivo, Glycine max Merr.; details: crop, active ingredient 1000 g/ha, observed 18th to 23rd day, 0 = non-treated, 100 = complete kill
Excerpt: as §1

Structure (SMILES)	Growth controlling degree (%) Soybean [%]
CCN(C(=O)Cc1cccc(C(F)(F)F)c1)C(c1cnccc1C(F)(F)F)C(C)C (stereo not drawn) [I-75]	30
CC(C)C(c1cnccc1Cl)N(C)C(=O)Cc1cccc(C(F)(F)F)c1F (stereo not drawn) [I-74]	30

tested on: barnyardgrass; test: Test Example 2: soil surface treatment, upland pot test; type: in vivo, Echinochloa crus-galli L.; details: active ingredient 500 g/ha, observed 20th to 28th day
Summary of the method: (§2)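 Upland soil in pots of 1/170,000 ha is sown; on day 1 after sowing the formulated compound (wettable powder or emulsifiable concentrate, predetermined a.i. amount, water volume 1,500 L/ha) is applied to the soil surface with a small sprayer. Percent control is judged by eye 20–28 days later.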

Structure (SMILES)	Growth controlling degree (%) Barnyardgrass [%]
CCN(C(=O)Cc1cccc(C(F)(F)F)c1)C(c1cnccc1C(F)(F)F)C(C)C (stereo not drawn) [I-75]	100

tested on: crabgrass; test: as above; type: in vivo, Digitaria sanguinalis L.; details: active ingredient 500 g/ha, observed 20th to 28th day
Summary of the method: as §2

Structure (SMILES)	Growth controlling degree (%) Crabgrass [%]
CCN(C(=O)Cc1cccc(C(F)(F)F)c1)C(c1cnccc1C(F)(F)F)C(C)C (stereo not drawn) [I-75]	100

tested on: green foxtail; test: as above; type: in vivo, Setaria viridis L.; details: active ingredient 500 g/ha, observed 20th to 28th day
Summary of the method: as §2

Structure (SMILES)	Growth controlling degree (%) Green foxtail [%]
CCN(C(=O)Cc1cccc(C(F)(F)F)c1)C(c1cnccc1C(F)(F)F)C(C)C (stereo not drawn) [I-75]	100

tested on: redroot pigweed; test: as above; type: in vivo, Amaranthus retroflexus L.; details: active ingredient 500 g/ha, observed 20th to 28th day
Summary of the method: as §2

Structure (SMILES)	Growth controlling degree (%) Redroot pigweed [%]
CCN(C(=O)Cc1cccc(C(F)(F)F)c1)C(c1cnccc1C(F)(F)F)C(C)C (stereo not drawn) [I-75]	40

tested on: prickly sida; test: as above; type: in vivo, Sida spinosa L.; details: active ingredient 500 g/ha, observed 20th to 28th day
Summary of the method: as §2

Structure (SMILES)	Growth controlling degree (%) Prickly sida [%]
CCN(C(=O)Cc1cccc(C(F)(F)F)c1)C(c1cnccc1C(F)(F)F)C(C)C (stereo not drawn) [I-75]	80

tested on: velvetleaf; test: as above; type: in vivo, Abutilon theophrasti MEDIC.; details: active ingredient 500 g/ha, observed 20th to 28th day
Summary of the method: as §2

Structure (SMILES)	Growth controlling degree (%) Velvetleaf [%]
CCN(C(=O)Cc1cccc(C(F)(F)F)c1)C(c1cnccc1C(F)(F)F)C(C)C (stereo not drawn) [I-75]	70

tested on: rice; test: as above; type: in vivo, Oryza sativa L.; details: active ingredient 500 g/ha, observed 20th to 28th day
Summary of the method: as §2

Structure (SMILES)	Growth controlling degree (%) Rice [%]
CCN(C(=O)Cc1cccc(C(F)(F)F)c1)C(c1cnccc1C(F)(F)F)C(C)C (stereo not drawn) [I-75]	0

tested on: corn; test: as above; type: in vivo, Zea mays L.; details: active ingredient 500 g/ha, observed 20th to 28th day
Summary of the method: as §2

Structure (SMILES)	Growth controlling degree (%) Corn [%]
CCN(C(=O)Cc1cccc(C(F)(F)F)c1)C(c1cnccc1C(F)(F)F)C(C)C (stereo not drawn) [I-75]	10

tested on: soybean; test: as above; type: in vivo, Glycine max Merr.; details: active ingredient 500 g/ha, observed 20th to 28th day
Summary of the method: as §2

Structure (SMILES)	Growth controlling degree (%) Soyabean [%]
CCN(C(=O)Cc1cccc(C(F)(F)F)c1)C(c1cnccc1C(F)(F)F)C(C)C (stereo not drawn) [I-75]	0

tested on: barnyardgrass; test: Test Example 3: paddy pot test, application under submerged conditions; type: in vivo, Echinochloa crus-galli L.; details: active ingredient 250 g/ha; submerged application at 0.5 leaf stage; visually observed 14 days after application; 0 = non-treated, 100 = complete kill
Summary of the method: (§3)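 Visual growth-control rating (0 = untreated, 100 = complete kill) 14 days after treatment. The formulated compound, as a diluted wettable powder or emulsifiable concentrate, went into 3–4 cm flood water at a predetermined active-ingredient dose once the weeds reached 0.5 leaf stage (wapato: primary leaf stage).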

Structure (SMILES)	Growth controlling degree (%) Barnyardgrass [%]
CCN(C(=O)Cc1cccc(C(F)(F)F)c1)C(c1cnccc1C(F)(F)F)C(C)C (stereo not drawn) [I-75]	100

tested on: japanese bulrush; test: as above; type: in vivo, Scirpus juncoides; details: active ingredient 250 g/ha; submerged application at 0.5 leaf stage; visually observed 14 days after application; 0 = non-treated, 100 = complete kill
Summary of the method: as §3

Structure (SMILES)	Growth controlling degree (%) Japanese bulrush [%]
CCN(C(=O)Cc1cccc(C(F)(F)F)c1)C(c1cnccc1C(F)(F)F)C(C)C (stereo not drawn) [I-75]	70

tested on: japanese ribbon wapato; test: as above; type: in vivo, Sagittaria pygniaea; details: active ingredient 250 g/ha; submerged application at primary leaf stage; visually observed 14 days after application; 0 = non-treated, 100 = complete kill
Summary of the method: as §3

Structure (SMILES)	Growth controlling degree (%) Japanese ribbon wapato [%]
CCN(C(=O)Cc1cccc(C(F)(F)F)c1)C(c1cnccc1C(F)(F)F)C(C)C (stereo not drawn) [I-75]	40

tested on: rice (var. Nihonbare); test: Test Example 3: paddy pot test, transplanted rice; type: in vivo, Oryza sativa L.; details: active ingredient 250 g/ha, applied 4th day after transplantation, visually observed 21st day after application, 0 = non-treated, 100 = complete kill
Summary of the method: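 Rice (var. Nihonbare) at 2 leaf stage transplanted 3 cm deep into puddled paddy soil under 3–4 cm flooding; on day 4 after transplanting, diluted wettable powder or emulsifiable concentrate applied by pipette under submerged conditions at a set active-ingredient dose. Growth scored visually 21 days after application, 0 (untreated) to 100 (complete kill) %.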

Structure (SMILES)	Growth controlling degree (%) Rice [%]
CCN(C(=O)Cc1cccc(C(F)(F)F)c1)C(c1cnccc1C(F)(F)F)C(C)C (stereo not drawn) [I-75]	0
